Experimental data: patent publication US11998008B2, “Pesticides and methods of controlling pests” (The State of Israel, Ministry of Agriculture & Rural …, priority 2017, dated 2024)

Experiments:
P. digitatum = assay: Fungicidal activity assay on PDA in sealed Petri dish (growth inhibition and mortality); type: cell-based, Penicillium digitatum
Description: (§1) In exemplary procedures, the fungicidial activity of the compounds listed in Table 2 were examined by activity assays as follow: Petri dishes, 90 mm in diameter, with air volume of 80 mL, contained 10-12 mL of growth medium comprising potato dextrose agar (PDA) (Acumedia, Lansing, Michigan, USA) amended with tetracycline at 12 μg/mL. Each compound was placed on a disconnected cover from an Eppendorf tube that was located in the middle of the Petri dish and a hyphae-containing plug of each test fungus was added to the culture plate. In exemplary procedures, the tested compounds trans-2-heptenal, trans-2-octenal were tested in comparison with octanal, trans-2-octen-1-ol, methyl trans-2-octenoate, trans-3-octen-2-one and 3-pentenenitrile. In addition, cyclic ketones as 2-cyclopenten-1-one, 2-cyclohexen-1-one and α-tetralone were also examined. Then, the culture plate was sealed with parafilm and incubated at room-temperature for 2 days, after which the growth of the test fungi in those dishes was compared with those in the test compound-free control dishes. At the end of the assay, the viability of each test fungus was evaluated by transferring inoculum plugs to fresh PDA plates and observing the growth that developed within the next 2 days. The test fungi used in this study included but were not limited to Alternaria alternata, Botrytis cinerea, Sclerotinia rolfsii, Penicillium digitatum, Fusarium oxysporum f. sp. radicis-cucumerinum and Rhizoctonia solani.

S. rolfsii = assay: as above; type: cell-based, Sclerotinia rolfsii; settings: S. rolfsii; for I - Inhibition class: 2 days; for I - Inhibition, minimal concentration that inhibited the growth: concentration to which the class above belongs
Description: as §1, with “Each” for “In exemplary procedures, the fungicidial activity of the compounds listed in Table 2 were examined by activity assays as follow: Petri dishes, 90 mm in diameter, with air volume of 80 mL, contained 10-12 mL of growth medium comprising potato dextrose agar (PDA) (Acumedia, Lansing, Michigan, USA) amended with tetracycline at 12 μg/mL. Each”

[1] = tested on: Meloidogyne javanica second stage juveniles (J2s); assay: Nematocidal activity: viability of J2 nematodes after 2 days exposure to the compound in a sealed box; type: in vivo
Text: In exemplary procedures, the sedentary root-knot nematode from the genus Meloidogyne javanica second stage juveniles (J2s) was propagated on greenhouse-grown nematode-susceptible tomato Lycopersicon esculentum cv. ‘Avigail 870’ (Hazera, Shikmim, Israel), and nematode eggs were bulk-extracted from the roots with 0.05% (v/v) sodium hypochlorite (NaOCl) followed by sucrose flotation and successive sievings through nylon filters of 300, 120, 60, and 30 μm mesh sizes (AD Sinun Technologies, Petach Tikvah, Israel). For hatching J2, extracted eggs were placed on 30-μm sieves (AD Sinun Technologies) in 0.01 M MES (2-(N-morpholino) ethanesulfonic acid hydrate) pH 6.5 buffer under aseptic conditions in darkness for 5 days, and hatching J2s were collected for further experiments.
Seven vials, each containing 300 J2 nematodes with 0.5 mL of 0.01 M 2-(N-morpholino)ethanesulfonic acid (MES) buffer, were exposed to cyclic ketone compounds in order to examine their nematocidal activity and reduction in viability. In addition, a humid environment in a sealed 1 L box was maintained by addition 5 ml of distilled H2O to a 50-mm Petri plate. The box was sealed after compound addition into each 50-mm Petri plate together with 5-250 mg of perlite particles and incubated for 2 days in the dark at 25±1° C. C5 and C6 saturated and α,β-unsaturated cyclic ketones were tested for their nematocidal activity. The J2 nematodes viability was examined following exposure to the cyclic ketone compounds, by a straightforward small-scale nematode extraction method, based on the traditional Baermann funnel method. Briefly, all nematode suspensions were loaded onto 30-μm (AD Sinun Technologies) filters (1.0-1.5 cm height, 1.1-2.0 cm^3 internal area), and the nematodes were washed twice with 300 μL of 0.01 M MES buffer in order to remove any residues. Then, filters holding nematodes were placed into 15 mL Falcon centrifuge tubes, each containing 900 μL of 0.01 M of MES buffer. These filters allow active passage of only living J2s while paralyzed or dead nematodes remain on top of the filter. The whole apparatus including the filter holding the nematodes and the Falcon tubes were placed in the dark for 3 h at 25±1° C. Then, the filters were removed and the viable nematodes, which were able to actively cross the filter toward the 0.01 M of MES buffer, were collected from the Falcon tube and counted using a Nematode Counting Slide (Chalex LLC, Portland, OR, USA) and a SV11 stereomicroscope (Zeiss, Jena, Germany).
Data were analyzed by the JMP 12 software package (SAS Inc., Cary, NC, USA). Mean numbers of viable J2s under various conditions were subjected to one-way analysis of variance (ANOVA), followed by the Tukey-Kramer multiple comparison test, with significance set at P<0.05.

A. alternata = assay: Fungicidal activity assay on PDA in sealed Petri dish (growth inhibition and mortality); type: cell-based, Alternaria alternata
Description: as §1

[2] = tested on: Meloidogyne javanica second stage juveniles (J2s); assay: Nematocidal activity: viability of J2 nematodes after 2 days exposure to the compound in a sealed box; settings: in vivo
B. cinerea = assay: Fungicidal activity assay on PDA in sealed Petri dish (growth inhibition and mortality); type: cell-based, Botrytis cinerea
Description: as §1

[3] = tested on: F. oxysporum f. sp. radicis-cucumerium; assay: as above; type: cell-based, Fusarium oxysporum f. sp. radicis-cucumerinum
Description: as §1, with “Each” for “In exemplary procedures, the fungicidial activity of the compounds listed in Table 2 were examined by activity assays as follow: Petri dishes, 90 mm in diameter, with air volume of 80 mL, contained 10-12 mL of growth medium comprising potato dextrose agar (PDA) (Acumedia, Lansing, Michigan, USA) amended with tetracycline at 12 μg/mL. Each”

R. solani = assay: microbe, parasite or virus in culture; type: cell-based
Description: as §1, with “Each” for “In exemplary procedures, the fungicidial activity of the compounds listed in Table 2 were examined by activity assays as follow: Petri dishes, 90 mm in diameter, with air volume of 80 mL, contained 10-12 mL of growth medium comprising potato dextrose agar (PDA) (Acumedia, Lansing, Michigan, USA) amended with tetracycline at 12 μg/mL. Each”

tomato strain Ikram = settings: in vivo, 3 days
Description: (§2) An experiment in a larger scale was performed in loam soil in which the seedling were planted directly in the treated plot. The soil was treated with 0, 25, 50, 100, 200, 400, 800, and 1,600 ppm of emulsion of trans-2-octenal. The compound was applied using the irrigation system. A day later, tomato seedling strains Ikram and Abigail and lettuce seedling strain Raviv (10 seedlings each) were planted into the treated soil of each concentration. Eleven days later, the number of viable seedlings was counted.

peanut seeds = assay: Phytotoxic effect on peanut seeds in pots of loam soil; type: in vivo; settings: 16 days; for Number of germinated seeds: 9 seeds sown
Text: The phytotoxic effect of 2-cyclohexen-1-one was also examined on peanut seeds. The concentrations tested were: 0, 10, 20, and 40 ppm, 3 pots for each concentration. After mixing the loam soil with 2-cyclohexne-1-one, three peanut seeds were sown in each pot and let to grow for 16 days.

tomato strain Kilates = settings: in vivo, 3 days
Description: The soil was treated with 0, 400 and 800 ppm of emulsion of 2-cyclohexene-1-one. The compound was applied using the irrigation system. A day later, tomato seedling strains Ikram, and Kilates and lettuce seedling strain Raviv (10 seedlings each) were planted into the treated soil of each concentration. Three (3) days later, the number of seedlings was counted.

[4] = tested on: tomato seedlings strain Ikram; assay: Phytotoxic effect on tomato seedlings in pots of pretreated loam soil; type: in vivo; settings: 9 days
Description: The phytotoxic effect of 2-cyclohexen-1-one in pots was examined on tomato seedlings strain Ikram. Pots (9-10 repetitions) were filled with 500 g of loam soil pretreated with 2-cyclohexen-1-one at final concentration of 0, 50, and 60 ppm. Then, tomato seedling was planted in each pot and allowed to grow for 9 days. The phytotoxic effect was evaluated by counting the number of live seedling and measuring their heights.

test fungi = assay: Fungicidal activity assay on PDA, summaries over the test fungi; type: cell-based; settings: comparison within the series
Description: as §1

[5] = tested on: lettuce seedling strain Raviv; settings: in vivo, 3 days
Description: as §2

Meloidogyne javanica J2s = assay: Greenhouse nematocidal experiment with susceptible tomato plants in inoculated loam; type: in vivo; settings: tomato harvested after 8 weeks
Description: The activity of trans-2-octenal against nematodes was examined in a greenhouse experiment using stage 2 juveniles of the rot-knot nematode Meloidogyne javanica. […] After 2 days, the inoculated soil was treated with 30 ppm of trans-2-octenal and incubated for additional 5 days. Then, susceptible tomato plants were planted, and allowed to grow in a growing chamber for 8 weeks. At the end of the experiment, the plants, along with their root systems, were harvested from their pots and evaluated for incidence of root galling. In addition, M. javanica eggs were extracted from each root and counted, and the number of eggs per gram root was calculated. As shown in FIGS. 14A-14D, trans-2-octenal reduced the galling index and the number of eggs per gram root. […] The activity of 2-cyclohexen-1-one against nematodes was examined in a greenhouse experiment using stage 2 juveniles of the rot-knot nematode Meloidogyne javanica. The experiment was performed as described for trans-2-octenal. […] After 2 days, the inoculated soil was treated with 15 or 31 ppm of 2-cyclohexen-1-one and incubated for additional 5 days. Then, susceptible tomato plants were planted, and allowed to grow in a growing chamber for 8 weeks. At the end of the experiment, the plants, along with their root systems, were harvested from their pots and evaluated for incidence of root galling. In addition, M. javanica eggs were extracted from each root and counted, and the number of eggs per gram root was calculated.

[6] = NA + number = still viable in the highest concentration tested (given as >)
[7] = concentration to which the class above belongs

Structure (SMILES): CC(=O)/C=C/C1C(C)=CCCC1(C)C (stereo not drawn) [α-ionone]
- I - Inhibition class (P. digitatum; 2 days): NI (<50% growth inhibition)
- M - Mortality, minimal concentration that killed the fungus (P. digitatum; [6]): > 1250 ppm
- I - Inhibition, minimal concentration that inhibited the growth (P. digitatum; [7]): 1250 ppm
- I - Inhibition class (S. rolfsii): LI (Low inhibition - 51-75% of growth inhibition compared to control.)
- M - Mortality, minimal concentration that killed the fungus (S. rolfsii; [6]): > 1250 ppm
- I - Inhibition, minimal concentration that inhibited the growth (S. rolfsii): 1250 ppm
- Activity: reduction in J2s viability relative to non exposed control J2s (class) ([1]; in vivo): N 250 (key: S: >90% reduction in viability; M: 76-90% reduction in viability; L: 51-75% reduction in viability; N: <50% reduction in viability)
- I - Inhibition class (A. alternata; 2 days): LI (Low inhibition - 51-75% of growth inhibition compared to control.)
- M - Mortality, minimal concentration that killed the fungus (A. alternata; [6]): > 1250 ppm
- I - Inhibition, minimal concentration that inhibited the growth (A. alternata; [7]): 1250 ppm
- Activity: the most effective concentration [2]: N 250 ppm
- I - Inhibition class (B. cinerea; 2 days): LI (Low inhibition - 51-75% of growth inhibition compared to control.)
- M - Mortality, minimal concentration that killed the fungus (B. cinerea; [6]): > 1250 ppm
- I - Inhibition, minimal concentration that inhibited the growth (B. cinerea; [7]): 1250 ppm

Structure (SMILES): C/C=C(\C)C=O [Tiglic aldehyde]
- I - Inhibition class (S. rolfsii): MI (Medium inhibition - 76-99% of growth inhibition)
- M - Mortality, minimal concentration that killed the fungus (S. rolfsii; [6]): > 25 ppm
- I - Inhibition, minimal concentration that inhibited the growth (S. rolfsii): 25 ppm
- I - Inhibition class ([3]; 2 days): NI (<50% growth inhibition)
- M - Mortality, minimal concentration that killed the fungus [3, 6]: > 25 ppm
- I - Inhibition, minimal concentration that inhibited the growth [3, 7]: 25 ppm
- Activity: reduction in J2s viability relative to non exposed control J2s (class) ([1]; at the concentration given, 2 days incubation): M (76-90% reduction in viability)
- I - Inhibition class (R. solani; R. solani, 2 days): MI (Medium inhibition - 76-99% of growth inhibition)
- M - Mortality, minimal concentration that killed the fungus (R. solani; R. solani, NA + number = still viable in the highest concentration tested (given as >)): > 25 ppm
- I - Inhibition, minimal concentration that inhibited the growth (R. solani; R. solani, concentration to which the class above belongs): 25 ppm
- Activity: the most effective concentration [2]: M 25 ppm

Structure (SMILES): O=C1C=CCCC1 [2-cyclohexen-1-one]
- concentration at which phytotoxic effect occurred (tomato strain Ikram): 400 ppm
- % Viability (peanut seeds; 10 ppm): 89%
- Number of germinated seeds (peanut seeds; 10 ppm): 8
- % Viability (peanut seeds; 20 ppm): 100%
- Number of germinated seeds (peanut seeds; 20 ppm): 9
- % Viability (peanut seeds; 40 ppm): 89%
- Number of germinated seeds (peanut seeds; 40 ppm): 8
- concentration at which phytotoxic effect occurred (tomato strain Kilates): 400 ppm
- % Viability ([4]; 50 ppm): 100%
- Seedling height (Mean ± SD) ([4]; 50 ppm): 21 ± 3 cm
- % Viability ([4]; 60 ppm): 67%
- Seedling height (Mean ± SD) ([4]; 60 ppm): 16 ± 2 cm
- concentration at which phytotoxic effect was obtained ([4]; of 0, 50 and 60 ppm tested): 60 ppm
- MFC (S. rolfsii; Agroathelia rolfsii, NA + number = still viable in the highest concentration tested (given as >), read-out: M - Mortality, minimal concentration that killed the fungus): > 25 µg/mL
- MFC ([3]; Fusarium oxysporum, NA + number = still viable in the highest concentration tested (given as >), read-out: M - Mortality, minimal concentration that killed the fungus): > 25 µg/mL
- MFC (R. solani; Rhizoctonia solani, read-out: M - Mortality, minimal concentration that killed the fungus): > 25 µg/mL
- fungicidal activity in words (test fungi): fungicidal activity, to some extent
- concentration at which phytotoxic effect was displayed [5]: 800 ppm
- concentration sufficient to reduce the galling index and the number of eggs per gram root (Meloidogyne javanica J2s): 15 ppm
